The values below come from patent publication US9284302B2, “Cyclobutyl benzimidazoles as PDE 10 inhibitors” (Merck Sharp & Dohme Corp., priority 2012, dated 2016).

The assay deals with human PDE10A2 (Homo sapiens (Human), UniProt Q9Y233). In words: PDE10 fluorescence polarization (IMAP FP) inhibition assay. As to conditions: apparent inhibition constant; FAM-labeled cAMP substrate 50 nM, room temperature; read-out: PDE10a Ki. It is filed as biochemical. The procedure:
The activity of the compounds in accordance with the present invention as PDE10 inhibitors may be readily determined without undue experimentation using a fluorescence polarization (FP) methodology that is well known in the art (Huang, W., et al., J. Biomol Screen, 2002, 7: 215).
In a typical experiment the PDE10 inhibitory activity of the compounds of the present invention was determined in accordance with the following experimental method. PDE10A2 was amplified from human fetal brain cDNA (Clontech, Mountain View, Calif.) using a forward primer corresponding to nucleotides 56-77 of human PDE10A2 (Accession No. AF127480, Genbank Identifier 4894716), containing a Kozak consensus sequence, and a reverse primer corresponding to nucleotides 2406-2413 of human PDE10A2 (Accession No. AF127480, Genbank Identifier 4894716). Amplification with Easy-A polymerase (Stratagene, La Jolla, Calif.) was 95° C. for 2 minutes followed by thirty three cycles of 95° C. for 40 seconds, 55° C. for 30 seconds, and 72° C. for 2 minutes 48 seconds. Final extension was 72° C. for 7 minutes. The PCR product was TA cloned into pcDNA3.2-TOPO (Invitrogen, Carlsbad, Calif.) according to standard protocol. AD293 cells with 70-80% confluency were transiently transfected with human PDE10A2/pcDNA3.2-TOPO using Lipofectamine 2000 according to manufacturer specifications (Invitrogen, Carlsbad, Calif.). Cells were harvested 48 hours post-transfection and lysed by sonication (setting 3, 10×5 sec pulses) in a buffer containing 20 mM HEPES, 1 mM EDTA and protease inhibitor cocktail (Roche). Lysate was collected by centrifugation at 75,000 xg for 20 minutes. Supernatant containing the cytoplasmic fraction was used for evaluation of PDE10A2 activity. The fluorescence polarization assay for cyclic nucleotide phosphodiesterases was performed using an IMAP® FP kit supplied by Molecular Devices, Sunnyvale, Calif. (product #R8139). IMAP® technology has been applied previously to phosphodiesterase assays (Huang, W., et al., J. Biomol Screen, 2002, 7: 215). Assays were performed at room temperature in 384-well microtiter plates with an incubation volume of 20.2 μL. Solutions of test compounds were prepared in DMSO and serially diluted with DMSO to yield 8 μL of each of 10 solutions differing by 3-fold in concentration, at 32 serial dilutions per plate. […] 0% of inhibition is determined by using DMSO (1% final concentrations). […]

The structures appear in SMILES notation. Some results are limits rather than exact numbers.

Sequence of human PDE10A2 (Q9Y233 267-1055): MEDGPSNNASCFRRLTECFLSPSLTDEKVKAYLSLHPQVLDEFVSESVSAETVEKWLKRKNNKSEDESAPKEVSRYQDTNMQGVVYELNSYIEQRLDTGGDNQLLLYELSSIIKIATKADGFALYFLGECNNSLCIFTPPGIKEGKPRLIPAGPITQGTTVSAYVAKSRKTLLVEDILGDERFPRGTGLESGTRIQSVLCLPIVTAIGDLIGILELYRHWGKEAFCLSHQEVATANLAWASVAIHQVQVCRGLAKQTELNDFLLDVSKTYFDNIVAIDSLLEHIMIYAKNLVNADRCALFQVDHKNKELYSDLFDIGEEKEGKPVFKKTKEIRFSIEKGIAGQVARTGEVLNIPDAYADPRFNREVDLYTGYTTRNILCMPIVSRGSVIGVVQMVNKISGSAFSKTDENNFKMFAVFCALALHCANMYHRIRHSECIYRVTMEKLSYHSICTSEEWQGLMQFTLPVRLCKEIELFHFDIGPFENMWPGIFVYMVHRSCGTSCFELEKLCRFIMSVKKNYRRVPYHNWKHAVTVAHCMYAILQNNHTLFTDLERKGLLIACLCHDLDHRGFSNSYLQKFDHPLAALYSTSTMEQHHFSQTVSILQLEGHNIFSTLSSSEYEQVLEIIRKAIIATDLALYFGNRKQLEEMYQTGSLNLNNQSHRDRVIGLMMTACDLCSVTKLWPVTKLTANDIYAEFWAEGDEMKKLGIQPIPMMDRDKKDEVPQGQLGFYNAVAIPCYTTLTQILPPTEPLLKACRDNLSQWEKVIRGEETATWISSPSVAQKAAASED

Take `Cc1nc(-n2nc(C)nc2C)cc([C@H]2C[C@@H](c3nc4ccccc4n3C)C2)n1` [Example 3, 2-((cis)-3-(6-(3,5-dimethyl-1H-1,2,4-triazol-1-yl)-2-methylpyrimidin-4-yl)cyclobutyl)-1-methyl-1H-benzo[d]imidazole]: the Ki was 2.8 nM.
Take `Cc1nc(-n2nc(C)nc2C)cc(C2(F)CC(c3nc4ccccc4n3C)C2)n1` (stereo not shown) [Example 2, 2-(3-(6-(3,5-dimethyl-1H-1,2,4-triazol-1-yl)-2-methylpyrimidin-4-yl)-3-fluorocyclobutyl)-1-methyl-1H-benzo[d]imidazole]: the Ki stood at 88 nM.
The value for `Cc1nc(-n2nc(C)nc2C)cc([C@H]2C[C@H](c3nc4ccccc4n3C)C2)n1` [Example 4, 2-((trans)-3-(6-(3,5-dimethyl-1H-1,2,4-triazol-1-yl)-2-methylpyrimidin-4-yl)cyclobutyl)-1-methyl-1H-benzo[d]imidazole] was 4.7 nM.
As to `Cc1nc(-n2nc(C)nc2C)cc(C2(O)CC(c3nc4ccccc4n3C)C2)n1` (stereo not shown) [Example 1, 1-(6-(3,5-dimethyl-1H-1,2,4-triazol-1-yl)-2-methylpyrimidin-4-yl)-3-(1-methyl-1H-benzo[d]imidazol-2-yl)cyclobutanol], the Ki was over 75 nM.
